Assay results reported in patent publication US5484940A, “Substituted 3-indolyl-5-pyrazolone compounds” (priority 1994, dated 1996).

Key:
293 751 SWE cells = test: Cytotoxicity (MTT) in 293 751 SWE cells; assay type: cell-based, human; conditions: concentration not given
Method in brief: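 Used HEK293 cells stably expressing APP751 carrying the Swedish double mutation (K651N/M652L), plated at 1.5-2.5×10^4 cells/well in DMEM + 10% FBS. MTT was added to a final 1 mg/mL for 1 h at 37 °C, then lysed in SDS/DMF (pH 4.7) overnight. Viability was read as OD562 − OD650.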

human cortical neurons = test: Inhibition of toxicity of β-amyloid peptide to human neuronal cells (alamarBlue); assay type: cell-based; conditions: 50 μM β-amyloid peptide, 2-3 days; on average where more than one duplicate experiment; compound concentration not stated
Method: The purpose of this test is to determine the effect of 3-indolyl-5-pyrazolone compounds on the toxicity of β-amyloid peptide to neuronal cells.
Primary Human Cortical Cell Culture
Primary human cortical cultures were prepared using a modification of the procedure described by Seubert, et al.^21 Following filtration through Nitex nylon screens, cortical tissue was resuspended in a trypsin/EDTA solution (0.05% trypsin+0.53 mM EDTA in HBSS; GIBCO Laboratories, Grand Island, N.Y., USA) and kept at 37° C. for 20 minutes. The trypsin was then inactivated by resuspending the cells in serum-containing medium (MEM/FBS: Modified Eagles' Medium (MEM) containing 1% glucose, 1 mM sodium pyruvate, 1 mM glutamine, and supplemented with 10% fetal bovine serum (GIBCO). Cells were then pelleted by centrifugation and resuspended in a chemically-defined medium (MEM/B27: MEM containing B27 supplement in place of FBS; GIBCO). Polyethyleneimine (PEI; Sigma Chemical Company, St. Louis, Mo., USA)-coated 6.4 mm (96-well) dishes were rinsed once with MEM/FBS, and then seeded at 0.75 to 1.25×10^5 cells per well in 0.1 mL MEM/B27. Cultures were maintained in a H2 O-saturated incubator with an atmosphere of 95% air/5% CO 2 at 37° C. The culture medium was exchanged twice weekly. Cell viability was visually assessed by phase contrast microscopy and quantified by measuring the reduction of alamarBlue™ (Alamar Biosciences, Inc., Sacramento, Calif., USA).
β-amyloid peptide stock solutions were prepared as 1 mM stocks in sterile, doubly distilled water immediately prior to addition to cultures. Rat cortical neurons were exposed to β-amyloid peptide by removing the culture medium and replacing it with DMEM/N2 (GIBCO Laboratories,Grand Island, N.Y., USA) containing 10 to 20 μM β-amyloid peptide. Human cortical neurons were exposed to test compound plus β-amyloid peptide by removing the culture medium and replacing it with MEM containing 50 μM β-amyloid peptide. Cultures were maintained for 2-3 days before neuronal survival was quantified using alamarBlue™.
The alamarBlue™ assay incorporates a fluorometric/colorimetric metabolic indicator (Alamar Biosciences, Inc. Sacramento, Calif., USA). Viable cells convert alamarBlue™ from an oxidized (non-fluorescent, blue) form to a reduced (fluorescent, red) form. Assays were preformed by replacing the culture media with a 10% alamarBlue™ solution in DMEM (rat cortical cultures) or MEM (human cortical cultures).

5-lipoxygenase = target: T1, 5-lipoxygenase (Rattus norvegicus, UniProt P12527); test: 5-Lipoxygenase inhibition (5-HETE radioimmunoassay); assay type: biochemical; conditions: 6 μM compound; crude enzyme from RBL-1 cells; read-out: Percent Inhibition (5-lipoxygenase)
T1 construct: crude 5-lipoxygenase enzyme from rat basophilic leukemia cells (RBL-1); endogenous in cells; host or cells: RBL-1 (rat basophilic leukemia cells), crude enzyme
T1 sequence (P12527 1-673): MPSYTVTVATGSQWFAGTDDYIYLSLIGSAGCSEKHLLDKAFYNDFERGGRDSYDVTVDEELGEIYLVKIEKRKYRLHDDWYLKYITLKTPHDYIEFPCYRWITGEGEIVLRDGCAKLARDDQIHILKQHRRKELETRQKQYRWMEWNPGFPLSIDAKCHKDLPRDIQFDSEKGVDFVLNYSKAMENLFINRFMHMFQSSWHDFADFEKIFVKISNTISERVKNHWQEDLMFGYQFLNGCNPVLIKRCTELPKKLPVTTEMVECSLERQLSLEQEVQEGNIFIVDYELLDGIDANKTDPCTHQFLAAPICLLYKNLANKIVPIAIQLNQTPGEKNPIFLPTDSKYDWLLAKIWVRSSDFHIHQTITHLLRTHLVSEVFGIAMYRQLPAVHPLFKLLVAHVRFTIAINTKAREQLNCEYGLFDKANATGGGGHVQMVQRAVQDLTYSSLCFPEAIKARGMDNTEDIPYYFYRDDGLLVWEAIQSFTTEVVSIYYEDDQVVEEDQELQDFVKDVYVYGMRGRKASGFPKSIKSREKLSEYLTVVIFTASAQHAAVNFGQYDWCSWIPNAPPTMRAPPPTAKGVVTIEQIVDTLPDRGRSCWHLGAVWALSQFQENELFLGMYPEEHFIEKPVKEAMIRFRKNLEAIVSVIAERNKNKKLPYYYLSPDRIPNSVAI
Method: 5-Lipoxygenase catalyzes the oxidative metabolism of arachidonic acid to 5-hydroperoxyeicosatetraenoid acid ([…]), the initial reaction leading to the formation of the leukotrienes^18. Accordingly, compounds inhibiting 5-lipoxygenase activity are art recognized to have anti-inflammatory properties.
The ability of test compounds to inhibit 5-lipoxygenase activity was determined in assays^19 using crude 5-lipoxygenase enzyme from rat basophilic leukemia cells (RBL-1). Test compounds are pre-incubated with the enzyme for 5 minutes at room temperature and the reaction is initiated by addition of substrate (arachidonic acid). Following an 8 minute incubation at room temperature, the reaction is terminated by addition of citric acid, and levels of 5-HETE determined by 5-HETE radioimmunoassay.

inhibition at 6 µM (5-lipoxygenase): 60%
SMILES: COc1ccc2c(c1)c(CC1=NN(c3cccc(C(F)(F)F)c3)C(=O)C1)c(C)n2C(=O)c1ccc(Cl)cc1 [Example 25, 3-[1-(4-chlorobenzoyl)-5-methoxy-2-methyl-3-indolylmethyl]-1-(3-trifluoromethylphenyl)-5-pyrazolone]
cytotoxic effect on the 293 751 SWE cells (293 751 SWE cells): did not have a significant cytotoxic effect | inhibition of the toxicity of β-amyloid peptide to human neuronal cells (human cortical neurons): at least 25%
